Like-named read-outs stand apart in the source and are kept apart here. Values belong to the molecule of their own block, whether it stands above or below them.
Tests used:
[1] = Concentration of active agent in the rabbit eye after injection of a sustained release formulation into the vitreous; assay type: in vivo
Procedure: A 10 μL unit dose of either formulation 1 or formulation 2 was injected into the eyes of two rabbits, and the concentration of timolol or dexamethasone (dex) remaining in the eye tested at 7 days and 14 days thereafter. A 50 μL unit dose was injected into the vitreous of two rabbit's eyes, and the concentrations of active agent detected 7 days thereafter and averaged. Timalol was detected at 8.93 μg/mL; Dex was detected at 2.82 μg/mL.
A formulation consisting of 20% timolol maleate:10% Reservatrol:70% (1:1 ATEC:EA) was prepared by mixing. A unit dose of 50 μL was injected into the vitreous of two rabbit eyes, and Reservatrol was detected at 0.64 μg/mL (average) 7 days thereafter.

B16 melanoma tumors = experiment: Mouse B16 melanoma tumor model, single intratumoral implantation of sustained release antioxidant formulation; assay type: in vivo, C57 mouse
From the text: A mouse model was used to study the in vivo effect of sustained release antioxidant formulations on melanoma tumors. Mouse B16 melanoma Cell lines were obtained from NCI-Frederick, Md. C57 Mice were obtained from Simonsen Laboratories in Gilroy, Calif. Anesthesia was Ketamine/Xylazine/Acepromacine 1:1:0.03 mixture. […] cell suspension and 1×1 mm tumor pieces were preserved in 90% Fetal Bovine Serum and 10% DMSO in liquid nitrogen. Tumor was also maintained by in vivo serial subcutaneous passage.
Mice of either sex, weighing 16-18 grams, were anesthetized with the ketamine mixture. Subcutaneous implantation of the B16 suspension (100 ul of 2×10^6/ml) or solid tumor piece were performed in the back or nape of the mouse. Tumors were treated when tumor reached the average size of 6×6 mm in diameter and weighed approximately 0.6-0.8 grams in 7-10 days.
Treatment consisted of a single intratumoral implantation of semi-solid drug formulations. Each formulation consisted of 2 mg of active pharmaceutical ingredient (API): either Resveratrol, Astaxanthin, or Melatonin; in either tocopherol acetate (EA), benzyl benzoate (BB), or acetyltriethyl citrate (ATEC) excipients (all Sigma Chemical). The ratio of API and excipient was 80:20 by weight.

concentration at 7 days ([1]; other: intravitreal injection, 50 μL unit dose of 20% timolol maleate:10% Reservatrol:70% (1:1 ATEC:EA) injected into vitreous of two rabbit eyes, 7 days thereafter, average, read-out: concentration of Reservatrol detected in the vitreous): 640 ng/mL
Compound: Oc1ccc(/C=C/c2cc(O)cc(O)c2)cc1 [Reservatrol, 3,5,4′-trihydroxy-trans-stilbene]

Compound: CC1=C(/C=C/C(C)=C/C=C/C(C)=C/C=C/C=C(C)/C=C/C=C(C)/C=C/C2=C(C)C(=O)[C@@H](O)CC2(C)C)C(C)(C)C[C@H](O)C1=O [astaxanthin]
time to complete clinical resolution of the tumor (B16 melanoma tumors; after the single treatment): 5-7 weeks | time to peeling of overlying skin surface and beginning ulceration (B16 melanoma tumors; after the single treatment): about one | tumor growth after treatment (B16 melanoma tumors; after the single treatment): stopped growing immediately | condition and body weight of the animals (B16 melanoma tumors; until termination of the experiment on day 90): remained active and continued to gain weight

concentration at 7 days ([1]; rabbit, in vivo): 8930 ng/mL
Compound: CC(C)(C)NC[C@H](O)COc1nsnc1N1CCOCC1 [Timalol, timolol]

concentration at 7 days ([1]; rabbit, in vivo): 2820 ng/mL
Compound: C[C@@H]1C[C@H]2[C@@H]3CCC4=CC(=O)C=C[C@]4(C)[C@@]3(F)[C@@H](O)C[C@]2(C)[C@@]1(O)C(=O)CO [Dex, dexamethasone]

Reference: US9289428B2, “Conveniently injectable or implantable sustained-release antioxidant formulations for therapies of ocular maladies or cancer” (RAMSCOR, INC., priority 2011, dated 2016)
